In PubChem BioAssay AID1645865 (Buhrlage Lab, Dana-Farber Cancer Institute and Novartis …, 2021):
The source made the active and inactive calls.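 The calls were made as follows: active = maximal inhibition of the USP30 enzyme reaching 30% or more across the dose series; inactive = the rest.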

biological target: Ubiquitin carboxyl-terminal hydrolase 30 (Homo sapiens) (UniProt Q70CQ3); experiment: inhibitors of ubiquitin-specific protease 30 deubiquitylating enzyme, concentration dependence, in vitro biochemical, validation of primary hits (AID 1645865); details: purified USP30, Ub-rhodamine cleavage, fluorescence, 2 h
Sequence (Q70CQ3 whole entry, looked up): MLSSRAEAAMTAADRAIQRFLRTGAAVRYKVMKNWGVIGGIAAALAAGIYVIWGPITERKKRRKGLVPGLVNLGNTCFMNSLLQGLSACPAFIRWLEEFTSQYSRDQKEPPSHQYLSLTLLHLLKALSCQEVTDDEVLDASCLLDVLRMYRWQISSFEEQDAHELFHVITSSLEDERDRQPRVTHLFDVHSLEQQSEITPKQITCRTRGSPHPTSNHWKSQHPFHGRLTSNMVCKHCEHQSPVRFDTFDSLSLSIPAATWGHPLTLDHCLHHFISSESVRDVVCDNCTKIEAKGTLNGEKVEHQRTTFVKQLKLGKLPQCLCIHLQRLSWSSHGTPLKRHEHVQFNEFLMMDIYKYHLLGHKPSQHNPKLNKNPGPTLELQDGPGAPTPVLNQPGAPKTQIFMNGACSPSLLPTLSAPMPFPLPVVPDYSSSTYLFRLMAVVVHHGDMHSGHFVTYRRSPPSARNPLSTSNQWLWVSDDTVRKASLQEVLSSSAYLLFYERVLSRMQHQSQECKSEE

| IC50 | Structure (SMILES) |
| --- | --- |
| 1.82 µM | O=C(CSc1nc2cc(C(F)(F)F)ccc2s1)NCC(=O)c1ccccc1 |
| > 50 µM (inactive) | O=C(O)Cc1ccc(Nc2nc3ccccc3n3nnnc23)cc1 |
| 18.2 µM | CCOC(=O)CSc1nnc(-c2cnn(-c3ccccc3)c2N)o1 |
| > 50 µM (inactive) | Cc1nc(CN2CCn3c(Cn4cccn4)cnc3C2C)cs1 (stereo unspecified) |
| 36.6 µM | O=C(CN1C=NC2=NS(=O)(=O)c3ccccc3N21)Nc1cc(F)ccc1F |
| 23.6 µM | Cc1nn(-c2ccc([N+](=O)[O-])cc2)c(C)c1-c1nc2ccccc2[nH]1 |
| > 50 µM (inactive) | O=C1N(Cc2ccc(F)cc2)CCN1c1ccc2c(c1)CCC2 |
| > 50 µM (inactive) | COc1ccc(CC(=O)Nc2cccc(-c3nc4ncccc4o3)c2)cc1OC |
| > 50 µM (inactive) | CCOC(=O)c1cc2c(ccn2C)n1CC(=O)N1CCc2ccccc2C1 |
| < 0.05 µM | Cc1ccc2c(=O)c(C(=O)Nc3ccccc3)cn(CC(=O)NC3CCCCC3)c2n1 |
| > 50 µM (inactive) | COc1c2nc3ccccc3oc-2cc(=O)c1OC |
| > 50 µM (inactive) | CCOc1ccccc1C(=O)Nc1ccc2c(c1)Sc1ncccc1C(=O)N2C |
| 12.5 µM | CCCN1C=NS(=O)(=O)c2cc(C(=O)Nc3ccc(OC)c(Cl)c3)ccc21 |
| > 50 µM (inactive) | O=C1c2ccccc2-n2c1nc1ccccc1c2=O |
| 28.5 µM | COc1ccc2[nH]c3c(c2c1)CCN1C(=O)N(c2ccccc2C(=O)NCc2ccccc2)C(=O)[C@]31C |
| 7.68 µM | Cc1cc(N2CCC(NC(=O)NCc3ccc(F)cc3)C2=O)ccc1F (stereo unspecified) |
| > 50 µM (inactive) | COc1cccc2c1C(=O)c1ccc3c(c1C2=O)C(=O)CC(C)(O)C3 (stereo unspecified) |
| 1.76 µM | O=C(Nc1ccccc1-c1nc2ccccc2[nH]1)c1sc2ccccc2c1Cl |
| 19.5 µM | O=C(CC1C(=O)N(Cc2ccccc2)c2nc3ccccc3n21)NCCc1ccccc1 (stereo unspecified) |
| 10.7 µM | COc1ccc(C(=O)Nc2nc3n(n2)C(c2ccccc2)CC(=O)N3)cc1 (stereo unspecified) |
| 2.22 µM | Cc1ccc(-c2noc(-c3nnc(SCC(=O)NC4CCCC4)n3C)n2)cc1 |
| 1.35 µM | Cc1ccc(-c2nc(NC(=O)COc3ccc(Cl)cc3)no2)cc1 |
| 28.8 µM | Cn1c(=O)cc(SCC(=O)NC2CCN(Cc3ccccc3)CC2)c2ccc(Cl)cc21 |
| 2.04 µM | Cc1cc2nc(Oc3cccc(Cl)c3)c3ccccc3n2n1 |
| 27 µM | Fc1cccc(-n2cc(-c3noc(-c4ccccn4)n3)nn2)c1 |
| > 50 µM (inactive) | COc1ccc(C2CC(c3ccc(C)cc3)N(C(=O)C3CC3)c3ncnn32)cc1 (stereo unspecified) |

| IC50 | Structure (SMILES) |
| --- | --- |
| 25.5 µM | O=C(CCc1nnc2n(Cc3ccccc3Cl)c(=O)c3ccccc3n12)NCc1ccccn1 |
| > 50 µM (inactive) | CCOC(=O)C1C(c2ccc(Br)cc2)C2(C(=O)c3ccccc3C2=O)C2C=Cc3ccccc3N12 (stereo unspecified) |
| > 50 µM (inactive) | Cc1ccc2c(c1)N(Cc1nc(-c3ccc(F)cc3)no1)C(=O)CO2 |
| 1.24 µM | CC(C)=CCC/C(C)=C/Cc1c(O)cc2c(c1O)C(=O)OC2 |
| 18.5 µM | CCC(C)c1ccc(O[C@@H]2O[C@@H]3COC(c4ccccc4)O[C@H]3[C@H](O)[C@H]2NC(C)=O)cc1 (stereo partly specified) |
| > 50 µM (inactive) | Cc1cccc(NC(=O)c2nc(N3CCSCC3)c3cnn(C)c3n2)c1 |
| > 50 µM (inactive) | COc1ccc(CC(=O)NCc2ccc3[nH]c(C)cc3c2)cc1 |
| > 50 µM (inactive) | CN1CCN(C(=O)c2cc(-c3ccn(-c4ccccc4)n3)n3ccccc23)CC1 |
| 26.8 µM | O=C(Cc1nnc2c(-c3nc(C4CC4)no3)cccn12)Nc1ccccc1 |
| 29.7 µM | CC1CCN(S(=O)(=O)c2ccc(C(=O)Nc3ccc(S(N)(=O)=O)cc3)cc2)CC1 |
| 18 µM | CNS(=O)(=O)c1ccc(CNC(=O)c2cc(-c3ccc(C)cc3)no2)cc1 |
| > 50 µM (inactive) | COc1cc(N)c(Cl)cc1C(=O)OCC(=O)c1ccc2c(c1)OCCO2 |
| 2.15 µM | CSc1ccccc1C(=O)Nc1sc2c(c1C(N)=O)CCC(C)C2 (stereo unspecified) |
| > 50 µM (inactive) | O=C(/C=C/c1ccc(F)cc1)N1CCc2ccccc2C1 |
| > 50 µM (inactive) | COc1cccc2c1OCC(C(=O)NCc1ccc(F)cc1)=C2 |
| 26.5 µM | Cc1cc(C2CC(=O)Nc3c2c(C)nn3-c2nc3ccccc3[nH]2)c(C)s1 (stereo unspecified) |
| > 50 µM (inactive) | Cn1cc(-c2noc(Cc3cccc(C(F)(F)F)c3)n2)ccc1=O |
| 2.59 µM | COc1ccccc1Nc1ncc(C(=O)NCCc2ccc(Cl)cc2)c2ccccc12 |
| 21.4 µM | Cc1cccc(NC(=O)CN2C(=O)COc3cc(S(=O)(=O)N4CCCC4)ccc32)c1C |
| > 50 µM (inactive) | COc1ccc(CC(=O)Nc2nc(-c3ccco3)c(-c3ccco3)s2)cc1 |
| 2.09 µM | Clc1cncc(Oc2nc(-c3cccnc3)nc3ccccc23)c1 |
| 25.4 µM | Cc1c(C)n(-c2ccc(Br)cn2)c2ncnc(NCCCO)c12 |
| 33.1 µM | Cc1cc(O)c(Oc2cc(C)cc(O)c2O)c(O)c1 |
| 49.2 µM | CCn1cc(-c2cc(C(=O)Nc3cnn(Cc4cccc(F)c4)c3)c3ccccc3n2)cn1 |
| > 50 µM (inactive) | COC(=O)C1C(c2ccc(OC)cc2)C2(C(=O)c3ccccc3C2=O)C2C=Cc3ccccc3N12 (stereo unspecified) |
